Experimental data: patent US10653688B2, “6-(6-membered heteroaryl and aryl)isoquinolin-3-yl carboxamides and preparation and use thereof” (Samumed, LLC, priority 2017, dated 2020)
Where two headings read alike, the source gives them in different places.

Columns and labels:
[1] = test system: Wnt activity (SW480 colon carcinoma cells stably expressing the Sp5-Luc reporter gene); assay: Wnt activity screening assay (Sp5-Luc reporter gene assay); format: cell-based, human; conditions: Homo sapiens; for EC50: 36 to 48 hours; for inhibition at 10 µM: read-out: percent inhibition at 10 μM (given for EC50 >10 μM), 10 μM
How it was run: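 EC50 values come from a variable-slope four-parameter fit of luminescence normalized to DMSO-only wells. The read-out follows 36–48 h incubation at 37 °C, 5% CO2, in DMEM containing 1% fetal bovine serum. Cells are hygromycin-selected SW480 stably expressing firefly luciferase under a Wnt-responsive Sp5 promoter (eight TCF/LEF sites).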

recombinant GSK3β kinase = recombinant GSK3β kinase (Homo sapiens (Human), UniProt P49841); assay: GSK3β kinase assay (Ser/Thr 09 peptide Z-lyte, FRET); format: biochemical;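 note: FRET read-out as coumarin over fluorescein emission ratio, compounds incubated one hour at room temperature, IC50 from dose-response curve fit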
recombinant GSK3β kinase, sequence (P49841 whole entry): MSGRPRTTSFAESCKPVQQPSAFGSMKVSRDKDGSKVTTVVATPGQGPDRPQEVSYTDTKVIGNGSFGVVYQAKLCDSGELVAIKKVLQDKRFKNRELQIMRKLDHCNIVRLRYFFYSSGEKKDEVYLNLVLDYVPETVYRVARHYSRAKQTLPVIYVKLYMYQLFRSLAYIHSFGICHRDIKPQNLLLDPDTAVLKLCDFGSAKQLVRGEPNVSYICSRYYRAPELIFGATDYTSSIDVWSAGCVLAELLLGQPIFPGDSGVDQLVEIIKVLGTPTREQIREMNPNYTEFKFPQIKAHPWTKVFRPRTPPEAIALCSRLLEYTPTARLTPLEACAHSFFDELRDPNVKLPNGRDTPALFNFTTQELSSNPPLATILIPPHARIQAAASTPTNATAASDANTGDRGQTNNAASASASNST
Experimental: Each compound is dissolved in DMSO as a 10 mM stock and used to prepare compound source plates. Serial dilution (1:3, 11-point dose-response curves from 10 M to 0.0003 M) and compound transfer was performed using the ECHO 550 (Labcyte, Sunnyvale, Calif.) into 1536-well black-walled round bottom plates (Corning).
This is a non-radioactive assay using fluorescence resonance energy transfer (FRET) between coumarin and fluorescein to detect kinase activity which is represented as ratio of coumarin emission/fluorescein emission.
The mixture is allowed to incubate with the representative compounds for one hour at room temperature. All reactions were performed in duplicate. Unphosphorylated (“0% Control”) and phosphorylated (“100% control”) forms of Ser/Thr 18 serve as control reactions.
After incubation, diluted Development Buffer is added to the reaction and allowed to further incubate for one hour at room temperature.
Dose-response curves are generated and inhibitory concentration (IC50) values are calculated using non-linear regression curve fit in the Dotmatics' Studies Software (Bishops Stortford, UK).

[2] = test system: Cyclin D1 phosphorylation at Threonine 286 (pCcnD1) over total Cyclin D1 in SH-SY5Y cells; assay: phosphoCcnD1 to total CcnD1 ratio (PTT) cell-based assay, western blot; conditions: Homo sapiens, 48 hours
Experimental: Representative compounds were screened using the cell-based assay procedure for the ratio of signal of Cyclin D1 phosphorylation at Threonine 286 (pCcnD1) over the signal of total Cyclin D1 (CcnD1) (abbreviated: phosphoCcnD1 to total CcnD1 ratio, or PTT) as described below.
SH-SY5Y cells (human neuroblastoma, Sigma, Saint-Louis, Mo.) were cultured in 1:1 DMEM/F-12 medium supplemented with 15% FBS, 1% non-essential amino acid, and 1% penicillin/streptomycin.
SH-SY5Y cells were seeded at 1.0×10^5 cells in 1 mL per well in a 24-well plate. After cell adherence was confirmed, DMSO-resuspended Samumed compounds were dispensed to eight wells as a serial dilution from 10 μM to 4.6 nM final concentration in medium, or at 1.1 μM to 4.6 nM with particularly potent compounds. Cells were exposed to Samumed compounds for 48 hours in a 37° C. incubator.
Wells of compound-treated cells were visually checked for cell death before being washed with 500 μL per well of 1×DPBS supplemented with phosphatase inhibitor diluted to 1×. Cells were then lysed with 90 μL 1×RIPA buffer supplemented with phosphatase and protease inhibitors (each diluted to a final 1×). After scraping, 60 μL of cell lysate from each sample was used to dilute 4×LDS (ThermoFisher, NP0007) and 20×XT reducing agent (Bio-Rad, 1610792), each diluted to 1× final. All samples were then denatured via boiling at 95° C. Denatured cell sample lysates were directly tested for pCcnD1 and total CcnD1 signal by Western blot techniques and analysis. Specifically, denatured lysates were directly transferred to NuPAGE™ 4-12% Bis-Tris Midi Protein Gels, 26-well gels (ThermoFisher, WG1403BOX). Gels were transferred to […] nitrocellulose membranes via iBlot™ Transfer Stack, nitrocellulose, regular size (ThermoFisher, IB301031). Membranes were blocked with 1×TBS, 5% milk (Bio-Rad, 1706404XTU) before being probed for overnight with either anti-pCcnD1 primary antibody (Cell Signaling Technology, 2978S) or anti-total CcnD1 primary antibody (Cell Signaling Technology, 3300S) diluted 1:500 in 1×TBS-0.05% Tween-20, 3% milk. After overnight incubation in primary antibodies, membranes were washed profusely with 1×TBS-0.05% Tween-20 and probed for 1 hour with secondary anti-rabbit/HRP conjugate (Cell Signaling Technology, 7074S) diluted 1:1000 in 1×TBS-0.05% Tween-20, 3% milk. After incubation in secondary antibody, membranes were washed with 1×TBS-0.05% Tween-20.
Probed and washed membranes were developed for pCcnD1 or total CcnD1 signal with SuperSignal™ West Femto Maximum Sensitivity Substrate (ThermoFisher, 34096) using the ChemoDoc-It^2 (UVP) and related GelDocIt imaging software. Blots were then stripped, blocked, stained with anti-β-actin/HRP conjugate antibody (Cell Signaling Technology, 5125S), developed, and imaged for housekeeping β-actin protein control as previously described. Densitometry was measured with ImageJ (NIH) and signal was used to plot, draw the curves fitting, and determine the EC50 values in GraphPad Prism for tested Samumed compounds.

[3] = test system: LL29 cells (primary human fibroblasts derived from IPF patients), α-smooth muscle actin; assay: Inhibition of fibrotic process: TGF-β1-treated primary human fibroblasts, αSMA staining; format: cell-based; conditions: Homo sapiens, Fibroblast, 96 h, TGF-β1 20 ng/mL, 4 days, % cells positive for αSMA;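 note: controls were TGF-β1-stimulated wells with DMSO vehicle as the positive reference and cells given DMSO alone as the negative reference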
[4] = test system: secreted cytokines TNFα, IL-6 and KC-GRO in BV-2 cells (mouse microglial cells); assay: Secreted cytokines in lipopolysaccharide-stimulated mouse glial cell line; format: cell-based; conditions: LPS 250 ng/mL 5 hours, table does not say which cytokine
How it was run: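 BV-2 cells seeded at 35,000/well were pretreated overnight with compound (10 μM to 4.6 nM final), then stimulated 5 h with 250 ng/mL E. coli O111:B4 LPS. Supernatant TNFα, IL-6 and KC-GRO were quantified by electrochemiluminescence against standard curves (pg/mL) to fit EC50. Cytotoxicity was checked by CellTiter-Glo ATP read-out.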

[5] = target: recombinant DYRK1A kinase (Homo sapiens (Human), UniProt Q13627); assay: DYRK1A kinase assay (Ser/Thr 18 peptide Z-lyte, FRET)
[6] = GSK3β kinase, head says EC50, method says IC50, ATP 46 μM
[7] = DYRK1A kinase, head says EC50, method says IC50, ATP 30 μM

O=C(Nc1cc2cc(-c3cccnc3)ccc2cn1)C1CC1 [Compound 6, N-(6-(Pyridin-3-yl)isoquinolin-3-yl)cyclopropanecarboxamide]
EC50 [1]: 1100 nM
EC50 (recombinant GSK3β kinase; [6]): 56 nM
EC50 [2]: 276 nM
EC50 [3]: 197 nM
EC50 [4]: 33 nM
EC50 [5, 7]: 2 nM

CN1CCC(C(=O)Nc2cc3cc(-c4cccnc4)ccc3cn2)CC1 [Compound 8, 1-Methyl-N-(6-(pyridin-3-yl)isoquinolin-3-yl)piperidine-4-carboxamide]
EC50 [1]: 1280 nM
EC50 (recombinant GSK3β kinase; [6]): 652 nM
EC50 [2]: 36 nM
EC50 [3]: 398 nM
EC50 [4]: 36 nM
EC50 [5, 7]: 2 nM

Cc1nccn1CC(=O)Nc1cc2cc(-c3cccnc3)ccc2cn1 [Compound 14, 2-(2-Methyl-1H-imidazol-1-yl)-N-(6-(pyridin-3-yl)isoquinolin-3-yl) acetamide]
EC50 [1]: 3600 nM
EC50 (recombinant GSK3β kinase; [6]): 111 nM
EC50 [2]: 205 nM
EC50 [3]: 2240 nM
EC50 [4]: 136 nM
EC50 [5, 7]: 7 nM

O=C(Cn1ccnc1)Nc1cc2cc(-c3cccnc3)ccc2cn1 [Compound 15, 2-(1H-Imidazol-1-yl)-N-(6-(pyridin-3-yl)isoquinolin-3-yl)acetamide]
EC50 [1]: 3100 nM
EC50 (recombinant GSK3β kinase; [6]): 97 nM
EC50 [2]: 127 nM
EC50 [3]: 1520 nM
EC50 [4]: 21 nM
EC50 [5, 7]: 5 nM

O=C(CN1CCCC1)Nc1cc2cc(-c3cncc(F)c3)ccc2cn1 [Compound 18, N-(6-(5-Fluoropyridin-3-yl)isoquinolin-3-yl)-2-(pyrrolidin-1-yl)acetamide]
EC50 [1]: > 10000 nM
inhibition at 10 µM [1]: 9.2%
EC50 (recombinant GSK3β kinase; [6]): 1180 nM
EC50 [2]: 123 nM
EC50 [3]: 5970 nM
EC50 [4]: 1330 nM
EC50 [5, 7]: 39 nM

CN1CCC(C(=O)Nc2cc3cc(-c4cncc(F)c4)ccc3cn2)CC1 [Compound 19, N-(6-(5-Fluoropyridin-3-yl)isoquinolin-3-yl)-1-methylpiperidine-4-carboxamide]
EC50 [1]: > 10000 nM
inhibition at 10 µM [1]: 35.9%
EC50 (recombinant GSK3β kinase): 1800 nM
EC50 [2]: 140 nM
EC50 [3]: 1210 nM
EC50 [4]: 124 nM
EC50 [5]: 10 nM

CN1CCN(CC(=O)Nc2cc3cc(-c4cncc(F)c4)ccc3cn2)CC1 [Compound 20, N-(6-(5-Fluoropyridin-3-yl)isoquinolin-3-yl)-2-(4-methylpiperazin-1-yl) acetamide]
EC50 [1]: > 10000 nM
inhibition at 10 µM [1]: 17.4%
EC50 (recombinant GSK3β kinase): 3280 nM
EC50 [2]: 355 nM
EC50 [3]: 3140 nM
EC50 [5]: 31 nM

O=C(CCN1CCOCC1)Nc1cc2cc(-c3cncc(F)c3)ccc2cn1 [Compound 23, N-(6-(5-Fluoropyridin-3-yl)isoquinolin-3-yl)-3-morpholinopropanamide]
EC50 [1]: > 10000 nM
inhibition at 10 µM [1]: 38.7%
EC50 (recombinant GSK3β kinase): 602 nM
EC50 [2]: 80 nM
EC50 [3]: 1630 nM
EC50 [4]: 628 nM
EC50 [5]: 17 nM

CN1CCC(C(=O)Nc2cc3cc(-c4cncc(C#N)c4)ccc3cn2)CC1 [Compound 32, N-(6-(5-Cyanopyridin-3-yl)isoquinolin-3-yl)-1-methylpiperidine-4-carboxamide]
EC50 [1]: > 10000 nM
inhibition at 10 µM [1]: 24.2%
EC50 (recombinant GSK3β kinase; [6]): 6660 nM
EC50 [2]: 1 nM
EC50 [3]: 8400 nM
EC50 [4]: 640 nM
EC50 [5, 7]: 57 nM

COc1cncc(-c2ccc3cnc(NC(=O)C4CCN(C)CC4)cc3c2)c1 [Compound 33, N-(6-(5-Methoxypyridin-3-yl)isoquinolin-3-yl)-1-methylpiperidine-4-carboxamide]
EC50 [1]: 810 nM
EC50 (recombinant GSK3β kinase; [6]): 957 nM
EC50 [2]: 9100 nM
EC50 [3]: 481 nM
EC50 [4]: 62 nM
EC50 [5, 7]: 4 nM

O=C(Nc1cc2cc(-c3cncc(NC4CCNCC4)n3)ccc2cn1)C1CCCCC1 [Compound 44, N-(6-(6-(piperidin-4-ylamino)pyrazin-2-yl)isoquinolin-3-yl) cyclohexanecarboxamide]
EC50 [1]: 319 nM
EC50 (recombinant GSK3β kinase; [6]): 193 nM
EC50 [2]: 4 nM
EC50 [3]: 401 nM
EC50 [4]: 60 nM
EC50 [5, 7]: 1 nM

O=C(Nc1cc2cc(-c3cncc(CN4CCCC4)c3)ccc2cn1)C1CC1 [Compound 51, N-(6-(5-(Pyrrolidin-1-ylmethyl)pyridin-3-yl)isoquinolin-3-yl) cyclopropanecarboxamide]
EC50 [1]: 1260 nM
EC50 (recombinant GSK3β kinase; [6]): 175 nM
EC50 [2]: 974 nM
EC50 [3]: 4230 nM
EC50 [4]: 171 nM
EC50 [5, 7]: 7 nM

O=C(Nc1cc2cc(-c3cncc(CN4CCC(O)CC4)c3)ccc2cn1)C1CC1 [Compound 53, N-(6-(5-((4-Hydroxypiperidin-1-yl)methyl)pyridin-3-yl)isoquinolin-3-yl) cyclopropanecarboxamide]
EC50 [1]: 691 nM
EC50 (recombinant GSK3β kinase): 175 nM
EC50 [2]: 30 nM
EC50 [3]: 3070 nM
EC50 [4]: 55 nM
EC50 [5]: 2 nM

CN1CCN(Cc2cncc(-c3ccc4cnc(NC(=O)C5CC5)cc4c3)c2)CC1 [Compound 56, N-(6-(5-((4-Methylpiperazin-1-yl)methyl)pyridin-3-yl)isoquinolin-3-yl) cyclopropanecarboxamide]
EC50 [1]: 1230 nM
EC50 (recombinant GSK3β kinase; [6]): 609 nM
EC50 [2]: 45 nM
EC50 [3]: 5130 nM
EC50 [4]: 177 nM
EC50 [5, 7]: 5 nM

O=C(Nc1cc2cc(-c3cncc(CN4CCOCC4)c3)ccc2cn1)C1CC1 [Compound 57, N-(6-(5-(Morpholinomethyl)pyridin-3-yl)isoquinolin-3-yl) cyclopropanecarboxamide]
EC50 [1]: 1140 nM
EC50 (recombinant GSK3β kinase; [6]): 180 nM
EC50 [2]: 193 nM
EC50 [3]: 2160 nM
EC50 [4]: 152 nM
EC50 [5, 7]: 4 nM

[2H]c1nc([2H])c(-c2ccc3cnc(NC(=O)CN4CCCC4)cc3c2)c([2H])c1[2H] [Compound 60, N-(6-(pyridin-3-yl-d4)isoquinolin-3-yl)-2-(pyrrolidin-1-yl)acetamide]
EC50 [1]: > 10000 nM
inhibition at 10 µM [1]: 41.9%
EC50 (recombinant GSK3β kinase): 404 nM
EC50 [2]: 250 nM
EC50 [3]: 2600 nM
EC50 [4]: 3230 nM
EC50 [5]: 10 nM

CN1CCC(C(=O)Nc2cc3cc(-c4cnccn4)ccc3cn2)CC1 [Compound 75, 1-Methyl-N-(6-(pyrazin-2-yl)isoquinolin-3-yl)piperidine-4-carboxamide]
EC50 [1]: > 10000 nM
inhibition at 10 µM [1]: 33.7%
EC50 (recombinant GSK3β kinase): 1390 nM
EC50 [2]: 447 nM
EC50 [3]: 1370 nM
EC50 [4]: 194 nM
EC50 [5]: 10 nM

CC(C)CN1CCCC(C(=O)Nc2cc3cc(-c4cnccn4)ccc3cn2)CC1 (stereo not shown) [Compound 81, 1-Isobutyl-N-(6-(pyrazin-2-yl)isoquinolin-3-yl)azepane-4-carboxamide]
EC50 [1]: > 10000 nM
inhibition at 10 µM [1]: 3.9%
EC50 (recombinant GSK3β kinase; [6]): 1300 nM
EC50 [2]: 3000 nM
EC50 [3]: 5460 nM
EC50 [4]: 1470 nM
EC50 [5, 7]: 29 nM
